Assay results from patent US20210318318A1, “Kinase Activity In Tumors” (Institute For Cancer Research d/b/a The Research Institute …, priority 2018, published 2021).

How the values were obtained:
HGSOC cells [1] = assay: Cell viability of HGSOC cell line panel (Cell Titer Glo); assay type: cell-based, human; conditions: increasing concentrations; Cell Titer Glo
Procedure: Cells were treated with increasing concentrations of PF-03758309 and cell viability assessed by Cell Titer Glo according to manufacturer's instructions. Data represent the mean of six replicates.
Cell viability was assessed by Cell Titer Glo according to manufacturing. Data represent the mean of six replicates.
(§1) For short-term growth assays, 3000-5000 cells were plated per well in 96-well plates and allowed to adhere and equilibrate overnight. Drug was added the following morning and after 120 hours of drug treatment, cell viability was assessed using the CellTiter-Glo Luminescent cell viability assay according to manufacturer (Promega). Students t tests were performed for statistical analyses and p values ≤0.05 were considered significant. For colony formation assays, cells were plated in 24-well dishes (3000-5000 cells per well) and incubated overnight before continuous drug treatment for 14 days, with drug and media replaced twice weekly. At the end of treatment, cells were rinsed with PBS and fixed with chilled methanol for 10 minutes at −20° C. Methanol was removed by aspiration, and cells were stained with 0.5% crystal violet in 20% methanol for 20 minutes at room temperature, washed with distilled water, and scanned.

COV362 = assay: Short-term growth assay (CellTiter-Glo cell viability), kinase inhibitors; assay type: cell-based, human
Procedure: (§2) Cell viability was determined by Cell Titer Glo analysis.
COV362 cells were treated with increasing concentrations of A-674563 and cell viability assessed by Cell Titer Glo according to manufacturer's instructions. Data represent the mean of six replicates.
(§3) To explore the therapeutic potential of the HGSOC kinome signature, a detailed molecular analysis of protein levels/activity, growth and survival functions was carried out in a panel of recently validated HGSOC cell lines (Coscia et al., Nat. Commun., 2016, 7, 12645) that harbor commonly encountered HGSOC mutations and genetic rearrangements (see, FIG. 5A).
as §1

SNU-119 = assay: as above; assay type: cell-based, human
Procedure: as §2, §3, §1

Kuramochi = assay: as above; assay type: cell-based, human
Procedure: as §2, §3, §1

OVCAR4 = assay: as above; assay type: cell-based, human
Procedure: as §2, §3, §1

OVSAHO = assay: as above; assay type: cell-based, human
Procedure: as §2, §3, §1

HGSOC cells [2] = assay: Drug response in cells depleted of MRCKA by siRNA (Cell Titer Glo, cleaved PARP blots); assay type: cell-based, human; conditions: HGSOC cells; increasing doses
Procedure: Cells transfected with control or MRKCA siRNAs were treated with increasing doses of carboplatin. Cell viability was assessed by Cell Titer Glo according to manufacturer's instructions. Data represent the mean of six replicates. GR50 were determined using PRISM.
Cells transfected with control or MRKCA siRNAs were treated with increasing doses of olaparib. Cell viability was assessed by Cell Titer Glo according to manufacturer's instructions. Data represent the mean of six replicates. GR50 were determined using PRISM.
(§4) To explore if blocking dark kinases AAK1, STK38 or MRCKA activity in combination with current therapies improves drug efficacy, OVCAR4 cells depleted of AAK1, STK38 or MRCKA were treated with increasing doses of carboplatin, olaparib, JQ1, or a variety of kinase inhibitors in clinical trials for HGSOC.
(§5) siRNA transfections were performed using 25 nM siRNA duplex and the reverse transfection protocol. 3000-5000 cells per well were added to 96 well plates with media containing the siRNA and transfection reagent (Lipofectamine RNAiMax) according to the manufacturer's instructions. In experiments where inhibitors were used, the inhibitor was added at the time of transfection. Cells were allowed to grow for 72-120 hours post-transfection prior to CellTiter Glo (Promega) analysis. Two-to-three independent experiments were performed with each cell line and siRNA. Students t tests were performed for statistical analyses and p values ≤0.05 were considered significant. For western blot studies, the same procedure was performed with volumes and cell numbers proportionally scaled to a 60 mm or 10 cm dish, and cells were collected 24-72 hours post-transfection. siRNA product numbers and manufacturers are listed in Table 5.

OVCAR4 cells = assay: Drug growth inhibition in cells depleted of dark kinases by siRNA (Cell Titer Glo); assay type: cell-based, human; conditions: increasing doses of drug
Procedure: OVCAR4 cells were transfected with control nontargeting or dark kinase siRNAs and treated with escalating doses of appropriate drugs.
as §4, §5

MRCKA = MRCKA (Homo sapiens, UniProt Q5VT25); assay: MIB/MS kinome profiling of inhibitor-treated OVSAHO cells; assay type: cell-based; design: endogenous in cells; host or cells: OVSAHO; conditions: 2 μM, 4 hour treatment
MRCKA, sequence (Q5VT25 whole entry): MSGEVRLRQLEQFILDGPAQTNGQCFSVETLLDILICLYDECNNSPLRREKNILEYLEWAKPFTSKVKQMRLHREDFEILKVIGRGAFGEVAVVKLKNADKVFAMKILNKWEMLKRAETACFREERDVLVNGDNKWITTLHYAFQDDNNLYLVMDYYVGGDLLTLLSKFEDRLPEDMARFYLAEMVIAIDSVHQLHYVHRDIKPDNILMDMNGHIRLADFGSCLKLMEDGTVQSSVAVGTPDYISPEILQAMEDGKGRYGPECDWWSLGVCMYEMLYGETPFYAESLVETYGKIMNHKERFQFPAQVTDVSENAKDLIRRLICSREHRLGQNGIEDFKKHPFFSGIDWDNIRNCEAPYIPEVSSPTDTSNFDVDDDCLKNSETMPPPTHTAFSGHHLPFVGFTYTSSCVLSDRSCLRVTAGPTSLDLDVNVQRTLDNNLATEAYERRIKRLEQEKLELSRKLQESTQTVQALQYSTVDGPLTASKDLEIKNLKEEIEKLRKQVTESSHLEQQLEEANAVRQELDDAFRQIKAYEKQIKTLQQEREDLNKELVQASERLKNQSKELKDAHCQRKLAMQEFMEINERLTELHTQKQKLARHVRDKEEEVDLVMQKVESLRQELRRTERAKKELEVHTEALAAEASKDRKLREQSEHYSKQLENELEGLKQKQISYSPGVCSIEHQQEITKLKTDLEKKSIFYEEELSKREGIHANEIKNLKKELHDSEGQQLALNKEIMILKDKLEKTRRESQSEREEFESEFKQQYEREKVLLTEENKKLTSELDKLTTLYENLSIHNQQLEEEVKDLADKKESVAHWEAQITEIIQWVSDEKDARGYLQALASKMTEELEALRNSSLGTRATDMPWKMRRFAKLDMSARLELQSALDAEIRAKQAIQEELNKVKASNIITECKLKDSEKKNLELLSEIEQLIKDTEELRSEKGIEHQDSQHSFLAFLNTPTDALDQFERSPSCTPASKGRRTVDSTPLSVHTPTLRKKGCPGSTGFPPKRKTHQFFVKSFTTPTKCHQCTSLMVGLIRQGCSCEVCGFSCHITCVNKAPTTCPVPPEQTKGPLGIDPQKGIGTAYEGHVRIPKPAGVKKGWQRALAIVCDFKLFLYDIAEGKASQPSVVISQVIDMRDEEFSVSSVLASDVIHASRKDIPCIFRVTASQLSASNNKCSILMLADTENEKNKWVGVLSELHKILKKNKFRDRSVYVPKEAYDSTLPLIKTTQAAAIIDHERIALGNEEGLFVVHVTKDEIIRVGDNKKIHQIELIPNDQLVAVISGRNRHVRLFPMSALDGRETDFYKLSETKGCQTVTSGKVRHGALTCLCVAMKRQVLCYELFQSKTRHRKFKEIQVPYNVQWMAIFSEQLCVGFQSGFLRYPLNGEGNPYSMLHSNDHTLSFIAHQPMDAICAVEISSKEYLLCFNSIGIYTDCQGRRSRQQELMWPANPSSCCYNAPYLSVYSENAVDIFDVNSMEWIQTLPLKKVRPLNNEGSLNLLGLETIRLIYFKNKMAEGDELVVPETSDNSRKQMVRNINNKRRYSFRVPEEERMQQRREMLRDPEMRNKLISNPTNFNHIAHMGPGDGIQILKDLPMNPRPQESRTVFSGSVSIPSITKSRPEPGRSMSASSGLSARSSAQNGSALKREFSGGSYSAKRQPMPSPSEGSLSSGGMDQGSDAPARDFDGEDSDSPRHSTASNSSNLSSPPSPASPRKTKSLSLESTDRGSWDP
Procedure: (§6) OVSAHO cells were treated with inhibitors at a dose of 2 μM for 4 hours and kinase inhibition profiles determined by MIB/MS. Bar graph depicts % of kinase bound to MIBs relative to DMSO control as determined by label free quantitation.
(§7) OVSAHO cells were treated with 2 μM of inhibitor for 4 hours and analyzed by MIB/MS. Scatterplot depicts difference in kinase MIB-binding of drug treated relative to control DMSO as determined by Students T-test.
(§8) MIB-based kinome profiling was performed on several of these molecules in HGSOC cells to determine kinome-wide inhibition profiles.
(§9) Experiments using MIB/MS were performed as previously described (Duncan et al., Cell, 2012, 149, 307-321; and Kurimchak et al., Cell Reports, 2016, 16, 1273-1286). Briefly, cells or tumors were lysed on ice in buffer containing 50 mM HEPES (pH 7.5), 0.5% Triton X-100, 150 mM NaCl, 1 mM EDTA, 1 mM EGTA, 10 mM sodium fluoride, 2.5 mM sodium orthovanadate, 1× protease inhibitor cocktail (Roche), and 1% each of phosphatase inhibitor cocktails 2 and 3 (Sigma). Particulate was removed by centrifugation of lysates at 13,000 rpm for 10 minutes at 4° C. and filtration through 0.2 μm syringe filters. Protein concentrations were determined by BCA analysis (Thermo). To compare kinome signatures within and across such large sample sizes, a super-SILAC method was designed (Neubert et al., Nat. Meth., 2010, 7, 361-362) consisting of a cocktail of cancer cell lines that encompasses the activity of the “cancer kinome” to be used as a control for individual samples. Five cancer cell lines were selected from the NCI-60 panel (UACC257, MOLT4, COL0205, ACHN and PC3) that differed in their origin, gene expression patterns and mutation status. The cancer cell lines were labeled using SILAC and mixed equally providing a diverse SILAC ([^13C6,^15N4] arginine (Arg^10) and […] (Lys^8)) heavy kinome reference standard (HKS) to be used repeatedly in kinome profiling assays. An equal amount of the HKS was added to the non-labeled sample (cell, tumor or normal tissue) providing a quantitative strategy to compare kinome activity/levels across samples, amongst treatments and, importantly, across time. […]
(§10) Proteolytic peptides were resuspended in 0.1% formic acid and separated with a Thermo RSLC Ultimate 3000 on a Thermo Easy-Spray C18 PepMap 75 μm×50 cm C-18 2 μm column with a 240 minute gradient of 4-25% acetonitrile with 0.1% formic acid at 300 nL/min and 50° C. Eluted peptides were analyzed by a Thermo Q Exactive plus mass spectrometer utilizing a top 15 methodology in which the 15 most intense peptide precursor ions were subjected to fragmentation.

MRCKB = molecular target: T1, MRCKB (Homo sapiens, UniProt Q9Y5S2); assay: as above; assay type: cell-based; conditions: 2 μM, 4 hour treatment
T1 construct: endogenous in cells; host or cells: OVSAHO
T1 sequence (Q9Y5S2 whole entry): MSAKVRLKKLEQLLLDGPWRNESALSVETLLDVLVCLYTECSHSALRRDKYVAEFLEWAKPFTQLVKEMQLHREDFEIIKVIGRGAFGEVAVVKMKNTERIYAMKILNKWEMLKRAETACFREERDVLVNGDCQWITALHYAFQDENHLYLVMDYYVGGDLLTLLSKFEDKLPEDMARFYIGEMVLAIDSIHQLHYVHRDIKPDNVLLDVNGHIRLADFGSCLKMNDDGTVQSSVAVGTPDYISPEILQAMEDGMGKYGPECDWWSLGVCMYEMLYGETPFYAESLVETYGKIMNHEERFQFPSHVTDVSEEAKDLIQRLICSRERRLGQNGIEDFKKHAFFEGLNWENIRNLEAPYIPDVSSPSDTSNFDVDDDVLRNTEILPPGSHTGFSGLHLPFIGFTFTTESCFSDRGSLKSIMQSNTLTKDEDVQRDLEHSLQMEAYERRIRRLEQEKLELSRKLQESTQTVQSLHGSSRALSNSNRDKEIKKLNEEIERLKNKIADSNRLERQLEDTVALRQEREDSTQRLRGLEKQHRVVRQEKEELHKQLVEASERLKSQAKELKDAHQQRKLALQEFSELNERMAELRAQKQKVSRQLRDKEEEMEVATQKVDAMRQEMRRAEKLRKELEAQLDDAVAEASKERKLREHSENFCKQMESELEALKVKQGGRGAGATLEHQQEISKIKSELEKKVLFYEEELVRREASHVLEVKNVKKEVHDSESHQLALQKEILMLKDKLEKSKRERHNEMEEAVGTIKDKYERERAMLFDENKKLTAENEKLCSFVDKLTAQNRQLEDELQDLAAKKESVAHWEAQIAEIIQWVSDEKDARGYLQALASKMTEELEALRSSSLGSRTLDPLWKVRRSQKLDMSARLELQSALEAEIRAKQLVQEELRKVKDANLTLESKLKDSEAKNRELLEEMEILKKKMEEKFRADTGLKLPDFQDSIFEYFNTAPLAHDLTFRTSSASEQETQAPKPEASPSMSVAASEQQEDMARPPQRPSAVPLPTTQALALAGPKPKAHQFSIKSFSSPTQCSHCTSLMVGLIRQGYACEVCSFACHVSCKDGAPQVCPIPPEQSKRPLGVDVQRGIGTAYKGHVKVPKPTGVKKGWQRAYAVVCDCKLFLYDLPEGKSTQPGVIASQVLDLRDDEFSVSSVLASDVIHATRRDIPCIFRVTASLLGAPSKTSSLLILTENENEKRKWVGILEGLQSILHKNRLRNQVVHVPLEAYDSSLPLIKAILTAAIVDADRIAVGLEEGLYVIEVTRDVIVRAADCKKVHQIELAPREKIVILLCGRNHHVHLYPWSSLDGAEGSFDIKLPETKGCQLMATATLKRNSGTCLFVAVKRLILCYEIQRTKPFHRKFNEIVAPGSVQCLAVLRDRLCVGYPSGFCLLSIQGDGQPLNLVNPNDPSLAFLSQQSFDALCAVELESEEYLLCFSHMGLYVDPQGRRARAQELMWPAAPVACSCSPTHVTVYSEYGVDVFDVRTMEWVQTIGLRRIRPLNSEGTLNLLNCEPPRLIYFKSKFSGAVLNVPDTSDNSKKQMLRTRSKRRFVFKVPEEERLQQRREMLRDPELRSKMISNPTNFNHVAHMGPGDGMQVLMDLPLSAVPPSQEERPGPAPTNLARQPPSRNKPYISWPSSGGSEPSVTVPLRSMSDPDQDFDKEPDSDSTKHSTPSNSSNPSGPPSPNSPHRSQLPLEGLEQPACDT
Procedure: as §6, §7, §8, §9, §10

ROCK2 = molecular target: T2, ROCK2 (Homo sapiens, UniProt O75116); assay: as above; assay type: cell-based; conditions: 2 μM, 4 hours
T2 construct: endogenous in cells; host or cells: OVSAHO
T2 sequence (O75116 whole entry): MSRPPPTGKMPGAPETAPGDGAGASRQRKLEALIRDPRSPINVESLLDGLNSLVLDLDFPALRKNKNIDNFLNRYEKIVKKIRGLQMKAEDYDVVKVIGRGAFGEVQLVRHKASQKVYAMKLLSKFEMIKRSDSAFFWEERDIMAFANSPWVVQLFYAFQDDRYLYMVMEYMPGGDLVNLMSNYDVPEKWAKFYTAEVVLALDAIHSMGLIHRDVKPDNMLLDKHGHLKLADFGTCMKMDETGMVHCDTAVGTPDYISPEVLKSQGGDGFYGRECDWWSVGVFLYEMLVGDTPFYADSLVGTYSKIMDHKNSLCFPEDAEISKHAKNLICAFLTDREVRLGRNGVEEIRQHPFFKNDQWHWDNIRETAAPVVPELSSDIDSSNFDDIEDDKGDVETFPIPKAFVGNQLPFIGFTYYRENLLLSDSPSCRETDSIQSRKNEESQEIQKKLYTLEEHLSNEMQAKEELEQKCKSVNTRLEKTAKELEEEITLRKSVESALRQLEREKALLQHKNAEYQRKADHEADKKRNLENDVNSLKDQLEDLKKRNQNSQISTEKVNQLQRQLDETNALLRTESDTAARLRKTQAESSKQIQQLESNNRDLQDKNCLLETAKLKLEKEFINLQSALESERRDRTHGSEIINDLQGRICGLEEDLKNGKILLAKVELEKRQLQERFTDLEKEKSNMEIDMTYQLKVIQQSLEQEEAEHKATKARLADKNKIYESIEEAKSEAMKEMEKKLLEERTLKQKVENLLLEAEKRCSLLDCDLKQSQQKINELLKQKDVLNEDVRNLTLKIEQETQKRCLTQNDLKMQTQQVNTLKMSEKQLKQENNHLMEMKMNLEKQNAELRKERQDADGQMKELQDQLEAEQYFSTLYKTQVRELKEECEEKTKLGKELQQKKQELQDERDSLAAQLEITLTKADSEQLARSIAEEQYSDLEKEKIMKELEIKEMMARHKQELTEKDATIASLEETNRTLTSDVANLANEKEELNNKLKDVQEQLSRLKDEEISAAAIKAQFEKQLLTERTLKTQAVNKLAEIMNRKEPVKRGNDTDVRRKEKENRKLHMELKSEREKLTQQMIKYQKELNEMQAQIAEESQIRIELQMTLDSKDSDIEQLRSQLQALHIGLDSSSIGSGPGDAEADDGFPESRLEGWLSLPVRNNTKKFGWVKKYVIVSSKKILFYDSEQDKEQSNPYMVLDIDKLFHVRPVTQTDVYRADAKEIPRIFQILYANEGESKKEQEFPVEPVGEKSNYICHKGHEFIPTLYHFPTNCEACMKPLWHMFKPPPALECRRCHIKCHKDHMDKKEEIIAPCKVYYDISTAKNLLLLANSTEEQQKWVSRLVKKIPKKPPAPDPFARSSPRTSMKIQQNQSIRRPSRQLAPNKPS
Procedure: as §7, §8
Experiments using MIB/MS were performed as previously described (Duncan et al., Cell, 2012, 149, 307-321; and Kurimchak et al., Cell Reports, 2016, 16, 1273-1286). Briefly, cells or tumors were lysed on ice in buffer containing 50 mM HEPES (pH 7.5), 0.5% Triton X-100, 150 mM NaCl, 1 mM EDTA, 1 mM EGTA, 10 mM sodium fluoride, 2.5 mM sodium orthovanadate, 1× protease inhibitor cocktail (Roche), and 1% each of phosphatase inhibitor cocktails 2 and 3 (Sigma). Particulate was removed by centrifugation of lysates at 13,000 rpm for 10 minutes at 4° C. and filtration through 0.2 μm syringe filters. Protein concentrations were determined by BCA analysis (Thermo). To compare kinome signatures within and across such large sample sizes, a super-SILAC method was designed (Neubert et al., Nat. Meth., 2010, 7, 361-362) consisting of a cocktail of cancer cell lines that encompasses the activity of the “cancer kinome” to be used as a control for individual samples. […] An equal amount of the HKS was added to the non-labeled sample (cell, tumor or normal tissue) providing a quantitative strategy to compare kinome activity/levels across samples, amongst treatments and, importantly, across time. […]
as §10

[3] = tested on: FAK1, MLC and Paxillin phosphorylation; FAK1 and CHEK1 protein levels; assay: Western blot of signaling in inhibitor-treated HGSOC cells; assay type: cell-based, human; conditions: HGSOC (COV362) cells, increasing doses 0.5, 1 or 3 μM, 48 hours
Procedure: COV362 cells were treated with 0.5, 1 or 3 μM of A-674563 or SB-772077 for 48 hours and signaling monitored by western blot.
Samples were harvested in MIB lysis buffer, subjected to SDS-PAGE […] and transferred to PVDF membranes before western blotting with primary antibodies. For pMYPT and pMLC blots, cells were harvested in a buffer containing 1% (w/v) SDS, 50 mM Tris pH 7.5 supplemented with protease and phosphatase inhibitors buffer and were passed through QIAshredder columns (Qiagen, 79654), (Unbekandt et al., Cell Commun. Signal., 2014, 12, 54). For the list of primary antibodies used, see Table 4. Secondary HRP-anti-rabbit and HRP-anti-mouse were obtained from ThermoFisher Scientific. SuperSignal West Pico and Femto Chemiluminescent Substrates (Thermo) were used to visualize blots.

## CNC(=O)c1ccccc1Nc1cc(Nc2ccc(N3CCOCC3)cc2OC)ncc1C(F)(F)F [PND1186]
HGSOC cells [1]
  cell viability of HGSOC cells: reduced cell viability
COV362; drug 1.2 uM
  Kinase inhibition profile of HGSOC cells (growth inhibition, Cell Titer Glo): 0.34
SNU-119; drug 1.2 uM
  Kinase inhibition profile of HGSOC cells (growth inhibition, Cell Titer Glo): 0
Kuramochi; drug 1.2 uM
  Kinase inhibition profile of HGSOC cells (growth inhibition, Cell Titer Glo): 0.51
OVCAR4; drug 1.2 uM
  Kinase inhibition profile of HGSOC cells (growth inhibition, Cell Titer Glo): 0.51
OVSAHO; drug 1.2 uM
  Kinase inhibition profile of HGSOC cells (growth inhibition, Cell Titer Glo): 0.69

## O=C(c1cc(Cc2n[nH]c(=O)c3ccccc23)ccc1F)N1CCN(C(=O)C2CC2)CC1 [olaparib]
HGSOC cells [2]
  growth inhibitory and apoptotic response to drug with MRCKA knockdown: improved the growth inhibitory and apoptotic response
OVCAR4 cells
  growth inhibition by drug with MRCKA knockdown relative to non-targeting control siRNA: enhanced growth inhibition

## CS(=O)(=O)CCNCc1ccc(-c2ccc3ncnc(Nc4ccc(OCc5cccc(F)c5)c(Cl)c4)c3c2)o1 [Lapatinib]
MRCKA
  MIB-binding of MRCKA relative to DMSO: no effect
MRCKB
  MIB-binding of MRCKB relative to DMSO: no effect
COV362; drug 1.2 uM
  Kinase inhibition profile of HGSOC cells (growth inhibition, Cell Titer Glo): 0.9973
SNU-119; drug 1.2 uM
  Kinase inhibition profile of HGSOC cells (growth inhibition, Cell Titer Glo): 0.15
Kuramochi; drug 1.2 uM
  Kinase inhibition profile of HGSOC cells (growth inhibition, Cell Titer Glo): 0.9704
OVCAR4; drug 1.2 uM
  Kinase inhibition profile of HGSOC cells (growth inhibition, Cell Titer Glo): 0.974
OVSAHO; drug 1.2 uM
  Kinase inhibition profile of HGSOC cells (growth inhibition, Cell Titer Glo): 1.053

## Fc1ccc(Cl)cc1-c1nc(Nc2ccncc2)c2nccnc2n1 [SD-208]
MRCKA
  MIB-binding of MRCKA relative to DMSO: no effect
MRCKB
  MIB-binding of MRCKB relative to DMSO: no effect

## CCn1c(-c2nonc2N)nc2cncc(C(=O)N3CC[C@H](N)C3)c21 [SB-772077-B]
ROCK2
  MIB-binding of ROCK2: reduction in MIB-binding
[3]
  FAK1, MLC and Paxillin phosphorylation: reduced

## Cc1nc(Nc2[nH]nc3c2CN(C(=O)N[C@H](CN(C)C)c2ccccc2)C3(C)C)c2sccc2n1 [PF03758039]
HGSOC cells [1]
  cell viability of HGSOC cells: reduced cell viability to the greatest extent in OVCAR4 and KURMAOCHI cells
COV362; drug 1.2 uM
  Kinase inhibition profile of HGSOC cells (growth inhibition, Cell Titer Glo): 0.4916
SNU-119; drug 1.2 uM
  Kinase inhibition profile of HGSOC cells (growth inhibition, Cell Titer Glo): 0.3505
Kuramochi; drug 1.2 uM
  Kinase inhibition profile of HGSOC cells (growth inhibition, Cell Titer Glo): 0.4783
OVCAR4; drug 1.2 uM
  Kinase inhibition profile of HGSOC cells (growth inhibition, Cell Titer Glo): 0.2063
OVSAHO; drug 1.2 uM
  Kinase inhibition profile of HGSOC cells (growth inhibition, Cell Titer Glo): 0.659

## CN(C)C/C=C/C(=O)Nc1ccc(C(=O)Nc2cccc(Nc3ncc(Cl)c(-c4c[nH]c5ccccc45)n3)c2)cc1 [THZ1]
OVCAR4 cells
  growth inhibition by drug combined with knockdown of STK38: improved growth inhibition
  growth inhibition by drug with MRCKA knockdown relative to non-targeting control siRNA: enhanced growth inhibition
COV362; drug 0.156 uM
  Kinase inhibition profile of HGSOC cells (growth inhibition, Cell Titer Glo): 1.026
SNU-119; drug 0.156 uM
  Kinase inhibition profile of HGSOC cells (growth inhibition, Cell Titer Glo): 0
Kuramochi; drug 0.156 uM
  Kinase inhibition profile of HGSOC cells (growth inhibition, Cell Titer Glo): 0.07069
OVCAR4; drug 0.156 uM
  Kinase inhibition profile of HGSOC cells (growth inhibition, Cell Titer Glo): 0
OVSAHO; drug 0.156 uM
  Kinase inhibition profile of HGSOC cells (growth inhibition, Cell Titer Glo): 0
